{
  "source": "patent US8207229B1",
  "about": "“Preparation of hydroquinone amide compounds with antioxidant properties” (Catalys SAS, priority 2008, dated 2012)",
  "key": {"[1]": {"assay": "Inhibiting effect of free radicals: absorbance at 516 nm in the presence of radical diphenyl picryl hydrazide (XI)", "assay_type": "biochemical", "details": "ethanolic solution, 200 micromoles per liter compound, 100 micromoles per liter radical (XI), stirred 30 minutes at 20° C., 1-cm vessel", "experimental": "The antioxidant potential in solution of the compounds (I) is evaluated by measuring their reaction with the free radical diphenyl-picryl-hydrazide (XI) per C. T. Ho, S. Agric. Food Chem. 1999, p. 3975, using methyl gallate as a reference (XII).\nThe inhibiting effect of free radicals claimed for compounds (Ia) and (Ib) obtained in a pure state was evaluated by measuring their absorbance in UV spectrophotometry at 516 nanometers in the presence of radical diphenyl picryl hydrazide (XI).\nWe prepared ethanolic solutions containing 200 micromoles per liter of the compound to be tested and 100 micromoles per liter of radical (XI), stirred for 30 minutes at 20° C. and placed in a 1-cm long vessel, and we measured the absorbances."}, "[2]": {"assay": "Assay of the free radical scavenging activity: addition of radical (XI) solution until purple color, absorbance at 516 nm", "assay_type": "biochemical", "text": "b) Assay of the free radical scavenging activity of amides (Ia) and (Ib):\nUnder absorbance measurement conditions of 516 nanometers, we placed 2 micromoles of reference or substrate (Ia) and (Ib) under the UV cell.\nWe introduced a solution of 200 micromoles of radical (XI) until the purple color characteristic of the radical and measured the absorbance of the medium: […]"}},
  "data": [
    {"smiles": "COC(=O)c1cc(O)c(O)c(O)c1", "note": "[Methyl gallate, methyl gallate]", "values": [
      {"measurement": "Absorbance at 516 nm", "setting": "[1]", "result": 0.06},
      {"measurement": "(XI) consumed", "setting": "[2]; 2 micromoles of reference or substrate, solution of 200 micromoles of radical (XI) introduced until purple color", "result": 27.7, "unit": "mL"},
      {"measurement": "Absorbance at 516 nm", "setting": "[2]; absorbance of the medium after addition of radical (XI) until purple color, 2 micromoles of substrate", "result": 0.34}
    ]}
  ]
}
